Results published in patent publication US20240417405A1, “Substituted Spiro Derivatives” (Janssen Pharmaceutica NV, priority 2021, published 2024).

test system: MOLM14 cells; assay: Proliferation assay, spheroid-like growth, MOLM14 (MLL-AF9 rearranged); format: cell-based, human; conditions: Homo sapiens, MOLM-14, 192 h, 8 days, confluence as measure of spheroid size, read-out: spheroid assay_OneTime MOLM14 IC50
In short: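 Cells seeded in ultra-low attachment round-bottom wells (200 MOLM14 or 300 KO-52 per well) with compound at several concentrations, DMSO 0.3%, grown 8 days at 37° C, 5% CO2. Spheroid size taken as confluence from day-8 live-cell images; IC50 from variable-slope fit, DMSO as 0% and high-dose reference compound as 100% effect.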

SMILES	IC50
CC(=O)N[C@H]1CCN([C@H]2C[C@@H]([C@H](C(C)C)N3CC4(CCN(c5ncnnc5Oc5ccc(F)cc5-c5cnc(C)nc5C5CC5)C4)C3)C2)C1 [Compound 388]	< 1.8 nM
CC(=O)N[C@@H]1CCN([C@H]2C[C@@H]([C@H](C(C)C)N3CC4(CCN(c5ncnnc5Oc5ccc(F)cc5-c5cnc(C)nc5C5CC5)C4)C3)C2)C1 [Compound 389]	2 nM
CC(=O)N[C@H]1[C@@H]2CN([C@H]3C[C@@H]([C@H](C(C)C)N4CC5(CCN(c6ncnnc6Oc6ccc(F)cc6-c6cnc(C)nc6C6CC6)C5)C4)C3)C[C@@H]21 [Compound 390]	4 nM
Cc1ncc(-c2cc(F)ccc2Oc2nncnc2N2CCC3(C2)CN([C@@H](C(C)C)[C@H]2C[C@@H](N4CC5(CN(C(=O)C6(F)CC6)C5)C4)C2)C3)c(C2CC2)n1 [Compound 391]	< 1.8 nM
Cc1ncc(-c2cc(F)ccc2Oc2nncnc2N2CCC3(C2)CN([C@@H](C(C)C)[C@H]2C[C@@H](N4CC5(CN(C(=O)C6CC6)C5)C4)C2)C3)c(C2CC2)n1 [Compound 392]	2 nM
CNC(=O)[C@H]1CCN([C@H]2C[C@@H]([C@H](C(C)C)N3CC4(CCN(c5ncnnc5Oc5ccc(F)cc5-c5cnc(C)nc5C5CC5)C4)C3)C2)C1 [Compound 393]	< 1.8 nM
CC(=O)N1CC2(C1)CN([C@H]1C[C@@H]([C@H](C(C)C)N3CC4(CCN(c5ncnnc5Oc5ccc(F)cc5-c5cnc(C)nc5C5CC5)C4)C3)C1)C2 [Compound 394]	3 nM
Cc1ncc(-c2cc(F)ccc2Oc2nncnc2N2CCC3(C2)CN([C@@H](C(C)C)[C@H]2C[C@@H](N4C[C@H]5COC[C@H]5C4)C2)C3)c(C2CC2)n1 [Compound 396]	< 1.8 nM
CO[C@H]1CCN([C@H]2C[C@@H]([C@H](C(C)C)N3CC4(CCN(c5ncnnc5Oc5ccc(F)cc5-c5nnc(C)cc5C5CC5)C4)C3)C2)C1 [Compound 398]	6.4 nM
Cc1cc(C2CC2)c(-c2cc(F)ccc2Oc2nncnc2N2CCC3(C2)CN([C@@H](C(C)C)[C@H]2C[C@H](N4C[C@@H]5[C@H](C4)[C@H]5C(=O)N(C)C)C2)C3)nn1 [Compound 401]	260 nM
CO[C@H]1[C@@H]2CN([C@H]3C[C@@H]([C@H](C(C)C)N4CC5(CCN(c6ncnnc6Oc6ccc(F)cc6-c6nnc(C)cc6C6CC6)C5)C4)C3)C[C@@H]21 [Compound 402]	9 nM
CO[C@H]1[C@@H]2CN([C@H]3C[C@H]([C@H](C(C)C)N4CC5(CCN(c6ncnnc6Oc6ccc(F)cc6-c6nnc(C)cc6C6CC6)C5)C4)C3)C[C@@H]21 [Compound 403]	230 nM
CC(=O)Nc1cc(NC2CC(C(C(C)C)N3CC4(CCN(c5ncnnc5Oc5ccc(F)cc5-c5cncnc5C5CC5)C4)C3)C2)ccn1 (centres unmarked) [Compound 407]	< 1.8 nM

target: T1, menin/MLL (terbium chelate-labeled menin, FITC-MBM1 peptide) (Homo sapiens, UniProt O00255, T541A); assay: Menin/MLL homogenous time-resolved fluorescence (HTRF) assay; format: binding; conditions: 30 min incubation
T1 construct: Menin (a.a 1-610-6xhis tag)
T1 sequence (O00255 with tags, fused parts or gaps T541A): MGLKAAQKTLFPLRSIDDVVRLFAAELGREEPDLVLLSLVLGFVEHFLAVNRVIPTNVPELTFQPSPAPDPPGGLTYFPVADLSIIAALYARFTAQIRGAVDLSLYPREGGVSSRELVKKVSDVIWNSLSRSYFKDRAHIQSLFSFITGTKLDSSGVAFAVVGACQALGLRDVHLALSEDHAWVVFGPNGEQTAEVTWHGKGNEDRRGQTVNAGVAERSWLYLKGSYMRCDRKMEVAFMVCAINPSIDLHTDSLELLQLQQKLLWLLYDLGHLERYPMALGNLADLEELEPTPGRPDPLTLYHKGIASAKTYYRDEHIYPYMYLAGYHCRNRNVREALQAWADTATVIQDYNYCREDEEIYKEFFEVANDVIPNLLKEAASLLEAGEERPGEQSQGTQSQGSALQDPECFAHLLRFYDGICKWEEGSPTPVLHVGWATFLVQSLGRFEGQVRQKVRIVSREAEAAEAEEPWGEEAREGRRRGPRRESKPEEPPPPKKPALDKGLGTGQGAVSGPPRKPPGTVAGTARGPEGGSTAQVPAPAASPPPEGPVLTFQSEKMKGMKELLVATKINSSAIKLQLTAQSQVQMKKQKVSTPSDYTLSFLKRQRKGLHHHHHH
In short: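 Terbium-labeled menin (aa 1-610, His-tagged; 200 pM) preincubated 30 min with compound, then 75 nM FITC-MBM1 peptide added for 15 min at ambient temperature in pH 7.5 Tris buffer, 0.5% DMSO. HTRF ratio 520/490 nm converted to % inhibition. IC50 came from an 11-point four-fold titration from 10 μM, floor 0.1 nM.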

SMILES	IC50
CC(=O)N[C@H]1CCN([C@H]2C[C@@H]([C@H](C(C)C)N3CC4(CCN(c5ncnnc5Oc5ccc(F)cc5-c5cnc(C)nc5C5CC5)C4)C3)C2)C1 [Compound 388]	0.027 nM
CC(=O)N[C@@H]1CCN([C@H]2C[C@@H]([C@H](C(C)C)N3CC4(CCN(c5ncnnc5Oc5ccc(F)cc5-c5cnc(C)nc5C5CC5)C4)C3)C2)C1 [Compound 389]	0.046 nM
CC(=O)N[C@H]1[C@@H]2CN([C@H]3C[C@@H]([C@H](C(C)C)N4CC5(CCN(c6ncnnc6Oc6ccc(F)cc6-c6cnc(C)nc6C6CC6)C5)C4)C3)C[C@@H]21 [Compound 390]	0.18 nM
Cc1ncc(-c2cc(F)ccc2Oc2nncnc2N2CCC3(C2)CN([C@@H](C(C)C)[C@H]2C[C@@H](N4CC5(CN(C(=O)C6(F)CC6)C5)C4)C2)C3)c(C2CC2)n1 [Compound 391]	0.057 nM
Cc1ncc(-c2cc(F)ccc2Oc2nncnc2N2CCC3(C2)CN([C@@H](C(C)C)[C@H]2C[C@@H](N4CC5(CN(C(=O)C6CC6)C5)C4)C2)C3)c(C2CC2)n1 [Compound 392]	0.11 nM
CNC(=O)[C@H]1CCN([C@H]2C[C@@H]([C@H](C(C)C)N3CC4(CCN(c5ncnnc5Oc5ccc(F)cc5-c5cnc(C)nc5C5CC5)C4)C3)C2)C1 [Compound 393]	0.13 nM
CC(=O)N1CC2(C1)CN([C@H]1C[C@@H]([C@H](C(C)C)N3CC4(CCN(c5ncnnc5Oc5ccc(F)cc5-c5cnc(C)nc5C5CC5)C4)C3)C1)C2 [Compound 394]	0.083 nM
Cc1ncc(-c2cc(F)ccc2Oc2nncnc2N2CCC3(C2)CN([C@@H](C(C)C)[C@H]2C[C@@H](N4C[C@H]5COC[C@H]5C4)C2)C3)c(C2CC2)n1 [Compound 396]	0.059 nM
CO[C@H]1CCN([C@H]2C[C@@H]([C@H](C(C)C)N3CC4(CCN(c5ncnnc5Oc5ccc(F)cc5-c5nnc(C)cc5C5CC5)C4)C3)C2)C1 [Compound 398]	0.144 nM
Cc1cc(C2CC2)c(-c2cc(F)ccc2Oc2nncnc2N2CCC3(C2)CN([C@@H](C(C)C)[C@H]2C[C@H](N4C[C@@H]5[C@H](C4)[C@H]5C(=O)N(C)C)C2)C3)nn1 [Compound 401]	0.52 nM
CO[C@H]1[C@@H]2CN([C@H]3C[C@@H]([C@H](C(C)C)N4CC5(CCN(c6ncnnc6Oc6ccc(F)cc6-c6nnc(C)cc6C6CC6)C5)C4)C3)C[C@@H]21 [Compound 402]	0.17 nM
CO[C@H]1[C@@H]2CN([C@H]3C[C@H]([C@H](C(C)C)N4CC5(CCN(c6ncnnc6Oc6ccc(F)cc6-c6nnc(C)cc6C6CC6)C5)C4)C3)C[C@@H]21 [Compound 403]	0.59 nM
CC(=O)Nc1cc(NC2CC(C(C(C)C)N3CC4(CCN(c5ncnnc5Oc5ccc(F)cc5-c5cncnc5C5CC5)C4)C3)C2)ccn1 (centres unmarked) [Compound 407]	0.11 nM
